Biological target: human mGlu4 receptor (Homo sapiens (Human), UniProt Q14833)
Test: Ca2+ mobilization in vitro assay on recombinant human mGlu4 expressed in HEK293 cells (PAM)
Assay type: cell-based
Conditions: for Emax: HEK293, maximal response in % of maximal stimulatory effect of saturating L-AP4, read-out: Eff. (%); for EC50: HEK293 cells, human mGlu4, in presence of EC20 of L-AP4, read-out: EC50 (nM) mGlu4PAM
Source text: FIG. 1: Illustrates the experimental outline for mGlu4 PAM Ca^2+ mobilization screening assay and the determination of EC50 and % Emax values. […] A depression of the signal observed after addition of the EC20 concentration of L-AP4 was indicative of an inhibitory activity of the test compound.
Determination of EC50 Values Using a Ca2+ Mobilization In Vitro Assay on Recombinant Human mGlu4 Expressed in HEK293 Cells:
A monoclonal HEK-293 cell line stably transfected with a cDNA encoding for the human mGlu4 receptor was generated; for the work with mGlu4 Positive Allosteric Modulators (PAMs), a cell line with low receptor expression levels and low constitutive receptor activity was selected to allow the differentiation of agonistic versus PAM activity. Cells were cultured according to standard protocols (Freshney, 2000) in Dulbecco's Modified Eagle Medium with high glucose supplemented with 1 mM glutamine, 10% (vol/vol) heat-inactivated bovine calf serum, Penicillin/Streptomycin, 50 μg/ml hygromycin and 15 μg/ml blasticidin (all cell culture reagents and antibiotics from Invitrogen, Basel, Switzerland).
About 24 hrs before an experiment, 5×10^4 cells/well were seeded in poly-D-lysine coated, black/clear-bottomed 96-well plates. The cells were loaded with 2.5 μM Fluo-4AM in loading buffer (1×HBSS, 20 mM HEPES) for 1 hr at 37° C. and washed five times with loading buffer. The cells were transferred into a Functional Drug Screening System 7000 (Hamamatsu, Paris, France), and 11 half logarithmic serial dilutions of test compound at 37° C. were added and the cells were incubated for 10-30 min. with on-line recording of fluorescence. Following this pre-incubation step, the agonist (2S)-2-amino-4-phosphonobutanoic acid (L-AP4) was added to the cells at a concentration corresponding to EC20 with on-line recording of fluorescence; in order to account for day-to-day variations in the responsiveness of cells, the EC20 of L-AP4 was determined immediately ahead of each experiment by recording of a full dose-response curve of L-AP4.
Responses were measured as peak increase in fluorescence minus basal (i.e. fluorescence without addition of L-AP4), normalized to the maximal stimulatory effect obtained with saturating concentrations of L-AP4. Graphs were plotted with the % maximal stimulatory using XLfit, a curve fitting program that iteratively plots the data using Levenburg Marquardt algorithm. The single site competition analysis equation used was y=A+((B−A)/(1+((x/C)D))), where y is the % maximal stimulatory effect, A is the minimum y, B is the maximum y, C is the EC50, x is the log 10 of the concentration of the competing compound and D is the slope of the curve (the Hill Coefficient). From these curves the EC50 (drug concentration at which 50% of the maximal receptor activation was achieved), the Hill coefficient as well as the maximal response in % of the maximal stimulatory effect obtained with saturating concentrations of L-AP4 were calculated (see FIG. 1).

Chain of human mGlu4 receptor (Q14833 33-912): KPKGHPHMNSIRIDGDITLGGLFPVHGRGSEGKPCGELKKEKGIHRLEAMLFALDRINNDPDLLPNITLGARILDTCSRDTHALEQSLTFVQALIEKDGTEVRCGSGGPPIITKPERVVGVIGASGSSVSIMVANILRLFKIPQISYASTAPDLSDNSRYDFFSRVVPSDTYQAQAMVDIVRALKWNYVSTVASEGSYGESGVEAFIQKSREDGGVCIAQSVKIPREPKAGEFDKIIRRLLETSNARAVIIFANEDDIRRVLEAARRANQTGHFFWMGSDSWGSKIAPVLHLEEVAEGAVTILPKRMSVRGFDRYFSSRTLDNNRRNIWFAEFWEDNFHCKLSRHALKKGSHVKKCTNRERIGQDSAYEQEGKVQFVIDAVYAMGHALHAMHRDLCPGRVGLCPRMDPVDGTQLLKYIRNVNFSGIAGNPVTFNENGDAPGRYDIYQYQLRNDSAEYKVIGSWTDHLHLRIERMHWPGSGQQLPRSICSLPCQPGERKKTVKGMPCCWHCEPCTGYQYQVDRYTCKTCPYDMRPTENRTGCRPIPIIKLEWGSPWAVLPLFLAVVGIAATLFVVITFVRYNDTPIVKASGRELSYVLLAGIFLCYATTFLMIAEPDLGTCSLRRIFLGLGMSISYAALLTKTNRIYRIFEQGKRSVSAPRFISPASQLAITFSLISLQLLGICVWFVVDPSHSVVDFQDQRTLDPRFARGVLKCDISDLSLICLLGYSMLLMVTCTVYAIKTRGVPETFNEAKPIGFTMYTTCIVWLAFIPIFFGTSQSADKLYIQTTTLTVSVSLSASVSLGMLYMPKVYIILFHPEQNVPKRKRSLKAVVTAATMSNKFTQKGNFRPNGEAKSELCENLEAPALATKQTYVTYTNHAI

SMILES	Emax	EC50
Cn1ncc(N2CCN3C(=O)N(c4c(F)cc(C#Cc5ccccc5)cc4F)C(=O)CC3(C)C2=O)cc1=O (racemic) [Example 51, (9aRS)-7-[2,6-difluoro-4-(2-phenylethynyl)phenyl]-9a-methyl-2-(1-methyl-6-oxo-pyridazin-4-yl)-4,9-dihydro-3H-pyrazino[1,2-c]pyrimidine-1,6,8-trione]	120%	191 nM
Cn1cnc(N2CCN3C(=O)N(c4c(F)cc(C#Cc5ccccc5)cc4F)C(=O)CC3(C)C2=O)c1 (racemic) [Example 58, (9aRS)-7-[2,6-difluoro-4-(2-phenylethynyl)phenyl]-9a-methyl-2-(1-methylimidazol-4-yl)-4,9-dihydro-3H-pyrazino[1,2-c]pyrimidine-1,6,8-trione]	91%	214 nM
CC12CC(=O)N(c3c(F)cc(C#Cc4ccccc4)cc3F)C(=O)N1CCN(c1cccnn1)C2=O (racemic) [Example 46, (9aRS)-7-[2,6-difluoro-4-(2-phenylethynyl)phenyl]-9a-methyl-2-pyridazin-3-yl-4,9-dihydro-3H-pyrazino[1,2-c]pyrimidine-1,6,8-trione]	106%	132 nM
Cn1nc(N2CCN3C(=O)N(c4c(F)cc(C#Cc5ccccc5)cc4F)C(=O)C[C@@]3(C)C2=O)ccc1=O [Example 49, (9aS)-7-[2,6-difluoro-4-(2-phenylethynyl)phenyl]-9a-methyl-2-(1-methyl-6-oxo-pyridazin-3-yl)-4,9-dihydro-3H-pyrazino[1,2-c]pyrimidine-1,6,8-trione]	109%	197 nM
Cc1cc(N2CCN3C(=O)N(c4c(F)cc(C#Cc5ccccc5)cc4F)C(=O)CC3(C)C2=O)ccn1 (racemic) [Example 11, (9aRS)-7-[2,6-difluoro-4-(2-phenylethynyl)phenyl]-9a-methyl-2-(2-methyl-4-pyridyl)-4,9-dihydro-3H-pyrazino[1,2-c]pyrimidine-1,6,8-trione]	119%	214 nM
Cn1cc(N2CCN3C(=O)N(c4c(F)cc(C#Cc5ccccc5)cc4F)C(=O)C[C@@]3(C)C2=O)ccc1=O [Example 24, (9aS)-7-[2,6-difluoro-4-(2-phenylethynyl)phenyl]-9a-methyl-2-(1-methyl-6-oxo-3-pyridyl)-4,9-dihydro-3H-pyrazino[1,2-c]pyrimidine-1,6,8-trione]	103%	128 nM
C[C@@]12CC(=O)N(c3c(F)cc(C#Cc4ccccc4)cc3F)C(=O)N1CCN(c1ccnnc1)C2=O [Example 50, (9aS)-7-[2,6-difluoro-4-(2-phenylethynyl)phenyl]-9a-methyl-2-pyridazin-4-yl-4,9-dihydro-3H-pyrazino[1,2-c]pyrimidine-1,6,8-trione]	133%	74 nM
CC12CC(=O)N(c3c(F)cc(C#Cc4ccccc4)cc3F)C(=O)N1CCN(c1ccc(Cl)nc1)C2=O (racemic) [Example 20, (9aRS)-2-(6-chloro-3-pyridyl)-7-[2,6-difluoro-4-(2-phenylethynyl)phenyl]-9a-methyl-4,9-dihydro-3H-pyrazino[1,2-c]pyrimidine-1,6,8-trione]	101%	116 nM
Cc1cccc(CN2CCN3C(=O)N(c4c(F)cc(C#Cc5ccccc5)cc4F)C(=O)CC3(C)C2=O)c1 (racemic) [Example 83, (9aRS)-7-[2,6-difluoro-4-(2-phenylethynyl)phenyl]-9a-methyl-2-(m-tolylmethyl)-4,9-dihydro-3H-pyrazino[1,2-c]pyrimidine-1,6,8-trione]	79%	173 nM
CC12CC(=O)N(c3c(F)cc(C#Cc4ccccc4)cc3F)C(=O)N1CCN(Cc1ccncn1)C2=O (racemic) [Example 95, (9aRS)-7-[2,6-difluoro-4-(2-phenylethynyl)phenyl]-9a-methyl-2-(pyrimidin-4-ylmethyl)-4,9-dihydro-3H-pyrazino[1,2-c]pyrimidine-1,6,8-trione]	96%	142 nM
